The assay deals with Ubiquitin-conjugating enzyme E2 N (Homo sapiens) (UniProt P61088). The assay is described as follows: UBE2N binders by NMR, biophysical, purified protein (AID 1552). The note with it: NMR binding to purified UBE2N.

Active and inactive are the calls of the source. How the calls were made is not given here.

By Kd is commonly meant the equilibrium constant for the complex coming apart.

Ubiquitin-conjugating enzyme E2 N (Homo sapiens), sequence (P61088 whole entry, looked up): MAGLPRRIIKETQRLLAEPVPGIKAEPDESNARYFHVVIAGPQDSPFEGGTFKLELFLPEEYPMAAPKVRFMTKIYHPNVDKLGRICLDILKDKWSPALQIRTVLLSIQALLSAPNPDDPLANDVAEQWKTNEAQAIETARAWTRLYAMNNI

In the case of `CC(C)CCCC(C)C1CCC2C3C[C@@H](O)[C@@]4(O)C[C@@H](O)CC[C@]4(C)C3CC[C@]12C` (stereo partly specified), the Kd was > 4 mM (inactive).
Turning to `Cc1oc(-c2ccccc2)nc1CC(=O)O`, the Kd was > 4 mM (inactive).
For the compound `O=c1[nH]c(O)c(C=NCc2cccs2)c(=O)[nH]1`, the Kd was > 4 mM (inactive).
In the case of `COC(=O)c1cccc2cc[nH]c12`, the Kd was > 4 mM (inactive).
The same measure for `COc1cccc2c1CCC1=CC(=O)CC[C@@]12C`: > 4 mM (inactive).
In the case of `Cc1cc(C)nc(N(C#N)Cc2ccccc2)n1`, the Kd was > 4 mM (inactive).
Turning to `Cc1cc(=O)[nH]c(NCC(=O)O)n1`, the Kd was > 4 mM (inactive).
Turning to `O=C(Nc1cccnc1)c1c(F)cccc1F`, the Kd was > 4 mM (inactive).
The same measure for `O=C(c1ccccc1)c1ccc(N2CCNCC2)cc1`: > 4 mM (inactive).
For `Cc1c(C(=O)OC(C)C)[nH]c2c1C(=O)CCC2`, the Kd is > 4 mM (inactive).
With `CN1CCN(c2cc(=O)n(C)c(=O)[nH]2)CC1`, the Kd is > 4 mM (inactive).
The same measure for `NC(=O)CCn1cnc2ccccc21`: > 4 mM (inactive); for `COc1cccc(N2CCN(C(=O)c3cccnc3)CC2)c1`: > 4 mM (inactive).
In the case of `NC(=O)CNC(=O)c1ccc2ccccc2n1`, the Kd was > 4 mM (inactive).
As to `O=C(O)C1CSC2(CCCCC2)N1` (stereo unspecified), the Kd was > 4 mM (inactive).
For the compound `Cc1cc(C)n(C/C=C/Cn2nc(C)cc2C)n1`, the Kd was > 4 mM (inactive).
In the case of `CN1CCN(c2ccc(N)cc2)CC1`, the Kd was > 4 mM (inactive).
Take `CC(=O)CC1CCCCN1` (stereo unspecified): the Kd is > 4 mM (inactive).
Consider `O=C(O)/C=C1\NC(=O)c2ccccc21`, for which the Kd is > 4 mM (inactive).
As for `Cc1cc(C(=O)NCc2cccnc2)no1`, the Kd is > 4 mM (inactive).
For the compound `O=C(O)c1ccc2c(c1)OCCCO2`, the Kd was > 4 mM (inactive).
Turning to `CC1NC(C(=O)O)Cc2c1[nH]c1ccccc21` (stereo unspecified), the Kd was > 4 mM (inactive).
On to `COc1ccccc1Nc1nncc(=O)[nH]1`, for which the Kd was > 4 mM (inactive).
Consider `O=C1CC(N2CCC(O)CC2)C(=O)N1c1ccc(F)cc1` (stereo unspecified), for which the Kd is > 4 mM (inactive).
In the case of `Nc1ccc(OC(F)(F)F)cc1`, the Kd was > 4 mM (inactive).
Regarding `COc1cc(C(=S)N2CCCC2)cc(Cl)c1O`, the Kd was > 4 mM (inactive).
As for `NC(=O)Cc1nc2ccccc2[nH]1`, the Kd is > 4 mM (inactive).
For `CC1=NN(c2ccc(C)cc2)C(=O)C1`, the Kd is > 4 mM (inactive).
The same measure for `C[C@@H]1O[C@@H](O[C@H]2[C@@H](Oc3cc(O)c4c(c3)O[C@H](c3ccc(O)cc3)CC4=O)O[C@H](CO)[C@@H](O)[C@@H]2O)[C@H](O)[C@H](O)[C@H]1O`: > 4 mM (inactive); for `Fc1cccc(Cl)c1CN1CCCNCC1`: > 4 mM (inactive); for `COc1ccc(Cl)c(S(=O)(=O)N2CCCC2)c1`: > 4 mM (inactive).
For `Cc1cn(C(=O)CN2C(=O)c3ccccc3C2=O)c(C)n1`, the Kd was > 4 mM (inactive).
Consider `O=C(O)c1cccc(-n2cccc2)c1`, for which the Kd was > 4 mM (inactive).
`C=C1C(N)CC2CC1C2(C)C` (stereo unspecified): the Kd is > 4 mM (inactive).
On to `O=C1Cn2c(nc3ccccc32)N1c1ccccc1F`, for which the Kd is > 4 mM (inactive).
Turning to `CCOC(=O)C1C(=O)C2CCN1CC2` (stereo unspecified), the Kd is > 4 mM (inactive).
The same measure for `C[C@H]1CCCC(=O)CCC/C=C/c2cc(O)cc(O)c2C(=O)O1`: > 4 mM (inactive).
Consider `CCn1ccc(C(=O)Nc2nccs2)n1`, for which the Kd was > 4 mM (inactive).
With `CC[C@H]1CN2CCC1C[C@@H]2[C@@H](O)c1ccnc2ccc(OC)cc12` (stereo partly specified), the Kd is > 4 mM (inactive).
As to `c1n[nH]cc1-c1cn[nH]c1`, the Kd was > 4 mM (inactive).
Turning to `O=C(O)C1=C[C@@H](O)[C@@H](O)[C@H](O)C1`, the Kd was > 4 mM (inactive).
With `Cc1cc(C(=O)N2CCCCCC2)cs1`, the Kd was > 4 mM (inactive).
On to `Cc1cc(N(CN2CCCC2=O)C(=O)c2ccccc2)no1`, for which the Kd is > 4 mM (inactive).
In the case of `C=C(C)[C@@H]1[C@H]2OC(=O)[C@@H]1[C@]1(O)C[C@H]3O[C@]34C(=O)O[C@H]2[C@]14C`, the Kd is > 4 mM (inactive).
Take `NC(=O)NC(=O)Nc1ccc(Cl)cc1`: the Kd is > 4 mM (inactive).
Regarding `CC(=O)Nc1ccccc1OCC(N)=O`, the Kd was > 4 mM (inactive).
Then `NC1=NC(=O)/C(=C/c2cccc([N+](=O)[O-])c2)S1`, with > 4 mM (inactive).
Then `O=c1c2ccccc2oc2ccccc12`, with > 4 mM (inactive); and `O=C(Nc1ccc2c(c1)OCO2)c1c(F)cccc1F`, with > 4 mM (inactive).
Take `COC(=O)c1cccs1`: the Kd is > 4 mM (inactive).
For `O=C(CSc1ncn[nH]1)c1ccccc1`, the Kd is > 4 mM (inactive).
Regarding `O=C(Nn1cnnc1)c1ccccc1Cl`, the Kd was > 4 mM (inactive).
The same measure for `NCc1ccc(-c2cccs2)s1`: > 4 mM (inactive).
For the compound `CC(=O)NC(O)C(=O)c1ccccc1` (stereo unspecified), the Kd was > 4 mM (inactive).
With `O=C(O)Cc1n[nH]c(=O)c2ccccc12`, the Kd was > 4 mM (inactive).
For `CC(NC(=O)c1ccco1)c1ccc2c(c1)OCCO2` (stereo unspecified), the Kd is > 4 mM (inactive).
The same measure for `NC(=O)C(=O)NCc1ccc(Cl)cc1`: > 4 mM (inactive).
The same measure for `NC(C(=O)O)C(O)c1ccccc1` (stereo unspecified): > 4 mM (inactive).
Regarding `Cc1cc(C)n(CC(=O)O)n1`, the Kd is > 4 mM (inactive).
Consider `O=C(Nc1nc2ccccc2s1)c1ccc(=O)[nH]n1`, for which the Kd is > 4 mM (inactive).
Take `N#CCCn1ccnc1-c1ccccc1`: the Kd is > 4 mM (inactive).
For the compound `Cn1cccc1C(=S)N1CCOCC1`, the Kd was > 4 mM (inactive).
Consider `CCNS(=O)(=O)c1cc(Br)ccc1OC`, for which the Kd is > 4 mM (inactive).
For the compound `CC(=O)Nc1ccc(NC(=O)c2ccncc2)cc1`, the Kd is > 4 mM (inactive).
As to `Nc1ccc(CN2CCS(=O)(=O)CC2)cc1`, the Kd is > 4 mM (inactive).
Turning to `CC1=CC2C(CC1=O)C(C)=CCC2C(C)C` (stereo unspecified), the Kd is > 4 mM (inactive).
In the case of `CN1CCC(N2CCOCC2)CC1`, the Kd was > 4 mM (inactive).
For the compound `Nc1ccc2c(c1)N1CCN=C1S2`, the Kd is > 4 mM (inactive).
As to `CCC(=O)NC(=S)Nc1ccc(O)cc1`, the Kd was > 4 mM (inactive).
For `CC(=O)c1ccc(NC(=S)N2CCC(O)CC2)cc1`, the Kd is > 4 mM (inactive).
Consider `O=C(Nc1ccon1)c1sc2cc(F)ccc2c1Cl`, for which the Kd is > 4 mM (inactive).
Consider `Cn1nc(C(=O)N2CCOCC2)c2ccccc2c1=O`, for which the Kd is > 4 mM (inactive).
Consider `O=C1CN(C(=O)c2ccccc2)c2ccccc2N1`, for which the Kd is > 4 mM (inactive).
Regarding `COc1c2ccoc2cc2oc(=O)ccc12`, the Kd is > 4 mM (inactive).
Consider `COCC(=O)Nc1ccc(F)cc1F`, for which the Kd was > 4 mM (inactive).
For `CN1C(=O)c2ccc(N=C3NC(=O)CS3)cc2C1=O`, the Kd was > 4 mM (inactive).
Regarding `CC(=O)c1c(C)n([O-])c2ccccc2[n+]1=O`, the Kd is > 4 mM (inactive).
For the compound `O=C(O)C1CN(Cc2ccccc2)CCO1` (stereo unspecified), the Kd was > 4 mM (inactive).
As for `COc1ccccc1NS(=O)(=O)c1c[nH]c(=O)[nH]c1=O`, the Kd was > 4 mM (inactive).
With `Cc1nnc(SCC(=O)N2CCCCC2)s1`, the Kd was > 4 mM (inactive).
`Cc1ccc2nc(SCC(=O)O)nc(C)c2c1`: the Kd was > 4 mM (inactive).
In the case of `Cc1cc(NC(=O)CSc2ccnc(=O)[nH]2)no1`, the Kd was > 4 mM (inactive).
For `COc1cccc(NC(=O)c2nc3ncccn3n2)c1`, the Kd was > 4 mM (inactive).
Regarding `CC(C)(C)CC(=O)NC1=NCCS1`, the Kd was > 4 mM (inactive).
The same measure for `Cc1ccnc(NS(=O)(=O)c2cccs2)c1`: > 4 mM (inactive); for `Cc1ccc(NC(=O)N2CCC(C(N)=O)CC2)cc1`: > 4 mM (inactive).
On to `CNC(=O)C1=NCCCc2cc(OC)c(OC)cc21`, for which the Kd was > 4 mM (inactive).
Consider `COc1ccc(CN2CCC(O)CC2)c(O)c1`, for which the Kd is > 4 mM (inactive).
`OCc1cc(-c2cccs2)on1`: the Kd was > 4 mM (inactive).
For `Cc1cc(=O)[nH]c(N)n1`, the Kd was > 4 mM (inactive).
Regarding `COc1cc(OC)c(OC)cc1C=O`, the Kd was > 4 mM (inactive).
Regarding `NC(=O)CCn1ncc2ccccc21`, the Kd was > 4 mM (inactive).
In the case of `CC(=O)Nc1ccc(-c2ccc3nncn3n2)cc1`, the Kd is > 4 mM (inactive).
For `O=C(NCCCO)c1ccncc1`, the Kd was > 4 mM (inactive).
As for `C(=N\c1ncn[nH]1)/c1cccs1`, the Kd was > 4 mM (inactive).
For the compound `O=C(NCCO)NC(=S)c1ccccc1`, the Kd was > 4 mM (inactive).
On to `Cc1cc(C(=O)Nc2ccc3c(c2)OCCO3)c(C)o1`, for which the Kd is > 4 mM (inactive).
Regarding `CC(=O)O[C@@H]1C=C[C@@]2(C)C(C[C@@H](OC(C)=O)[C@@]3(C)C4=CC(=O)O[C@@H](c5ccoc5)[C@]4(C)CCC23)C1(C)C` (stereo partly specified), the Kd was > 4 mM (inactive).
The same measure for `COc1cccc(NC(=O)c2ocnc2C)c1`: > 4 mM (inactive); for `NS(=O)(=O)c1ccc(NC(=O)c2cccs2)cc1`: > 4 mM (inactive).
Turning to `NC(=O)c1ccc(N=Cc2ccc[nH]2)cc1`, the Kd was > 4 mM (inactive).
For `COC(=O)N1CCN(c2ccc(C(C)=O)cc2)CC1`, the Kd was > 4 mM (inactive).
With `C[C@H](CCC(=O)O)[C@H]1CCC2C3C(CC[C@@]21C)[C@@]1(C)CC[C@@H](O)C[C@H]1C[C@@H]3O` (stereo partly specified), the Kd is > 4 mM (inactive).
The same measure for `OCCCc1nc2ccccc2[nH]1`: > 4 mM (inactive); for `CCOc1cccc(C(=O)c2ccc(O)c(O)c2O)c1`: > 4 mM (inactive).
In the case of `Cn1c(=O)cc(O)c2ccccc21`, the Kd is > 4 mM (inactive).

Values taken from PubChem BioAssay AID1552 (Sanford-Burnham Center for Chemical Genomics, 2009).
